Test results taken from ChEMBL document CHEMBL5532671, “Leucosceptrane Sesterterpenoids as a New Type of Natural Immunosuppressive Agents in Treating Sepsis” (J Med Chem, 2024).

How the values were obtained:
T-cell [1] = assay: Immunosuppressive activity in C57BL/6 female mouse T-cells isolated from spleen assessed as inhibition of LPS-induced IFN-gamma secretion at 20 uM treated for 48 hrs by ELISA based assay relative to control; type: functional; conditions: for inhibition at 20 µM: C57BL/6, T-cell
T-cell [2] = assay: Inhibition of proliferation of C57BL/6 female mouse T-cells isolated from spleen at 20 uM relative to control; type: functional; conditions: for inhibition at 20 µM: C57BL/6, T-cell
T-cell [3] = assay: Immunosuppressive activity in C57BL/6 female mouse T-cells isolated from spleen assessed as inhibition of LPS-induced IFN-gamma secretion treated for 48 hrs by ELISA based assay; type: functional; conditions: C57BL/6, T-cell
T-cell [4] = assay: Inhibition of proliferation of C57BL/6 female mouse T-cells isolated from spleen; type: functional, cell-based; conditions: C57BL/6, T-cell

IC50 (T-cell [3]) [µM]	Molecule	inhibition at 20 µM (T-cell [1]) [%]	inhibition at 20 µM (T-cell [2]) [%]	IC50 (T-cell [4]) [µM]	inhibition (T-cell [1]) [%]	inhibition (T-cell [2]) [%]
–	CC(C)=C[C@H]1O[C@@](C)(CCc2occc2C)[C@@H]2C(=O)[C@@]3(O)[C@@H](C)CC[C@H]3[C@H](C)[C@@]21O	40.4	16.8	–	–	–
–	CC(C)=C[C@H]1O[C@@](C)(CCO)C2=C1[C@@H](C)[C@@H]1CC[C@H](C)[C@]1(O)C2=O	39.6	< 10	–	–	–
–	CC(C)=C[C@H]1O[C@@](C)(CC[C@@]2(O)OC(=O)C=C2C)C2=C1[C@@H](C)[C@@H]1CC[C@H](C)[C@]1(O)C2=O	22.4	< 10	–	–	–
19.9	CC(C)=C[C@H]1O[C@@](C)(CCc2occc2C)[C@@H]2C(=O)[C@@H]3[C@@H](CC[C@@H]3C)[C@H](C)[C@@]21O	53.7	< 10	–	–	–
–	CC(C)=CC(=O)[C@@]1(O)[C@@H](C)[C@@H]2CC[C@H](C)[C@H]2C(=O)[C@@]12OC(=O)C[C@@H]2C	39.6	< 10	–	–	–
–	CC(C)=C[C@H]1O[C@@](C)(CC[C@@]2(O)OC(=O)C=C2C)[C@@H]2C(=O)[C@@H]3[C@@H](CC[C@@H]3C)[C@H](C)[C@@]21O	47.5	15.3	–	–	–
–	CC(C)=C[C@H]1O[C@@](C)(CCC(=O)O)C2=C1[C@@H](C)[C@@H]1CC[C@H](C)[C@H]1C2=O	45.9	18.2	–	–	–
26.8	CC(C)=C[C@H]1O[C@@](C)(C/C=C2\NC(=O)C=C2C)C2=C1[C@@H](C)[C@@H]1CC[C@H](C)[C@]1(O)C2=O	66	10.4	–	–	–
–	CC(C)=C[C@H]1O[C@@](C)(CC[C@@H]2OC(=O)C=C2C)[C@@H]2C(=O)[C@@H]3[C@@H](CC[C@@H]3C)[C@H](C)[C@@]21O	37.1	25.4	–	–	–
12.6	CC(C)=CC1O[C@@]2(C)CC[C@]3(OC(=O)C=C3C)O[C@]13[C@H]2C(=O)[C@H]1[C@@H](CC[C@@H]1C)[C@@H]3C (some centres not stated)	69.4	51.5	25.8	–	–
–	CC(C)=C[C@H]1O[C@@](C)(CC[C@@H]2OC(=O)C=C2C)[C@@H]2C(=O)[C@@]3(OO)[C@@H](C)CC[C@H]3[C@H](C)[C@@]21O	29.9	11.8	–	–	–
9.8	CC(C)=C[C@H]1O[C@@](C)(CCc2occc2C)[C@@H]2C(=O)[C@H]3[C@@H](CC[C@@H]3C)[C@H](C)[C@@]21O	63.9	12.3	–	–	–
–	CC(C)=C[C@H]1O[C@@](C)(CC[C@@H]2OC(=O)C=C2C)C2=C1[C@@H](C)[C@@H]1CC[C@H](C)[C@]1(O)C2=O	18.7	< 10	–	–	–
11.9	CC(C)=C[C@H]1O[C@@](C)(C[C@@H]2C(=O)C(C)=C[C@H]2O)[C@@H]2C(=O)[C@@]3(O)[C@@H](C)CC[C@H]3[C@H](C)[C@@]21O	65.3	11	–	–	–
–	CC(C)=CC(=O)[C@@]1(O)[C@@H](C)[C@@H]2CC[C@H](C)[C@H]2C(=O)[C@]1(O)[C@@H](C)CC[C@]1(O)OC(=O)C=C1C	48.6	< 10	–	–	–
22	CC(C)=C[C@H]1O[C@@]2(C)C[C@H](c3occc3C)O[C@]13[C@H]2C(=O)[C@@]1(O)[C@@H](C)CC[C@H]1[C@@H]3C	57.7	18.6	–	–	–
19.6	CC(C)=C[C@H]1O[C@@](C)(C/C=C2\NC(=O)C=C2C)[C@@H]2C(=O)[C@@H]3[C@@H](CC[C@@H]3C)[C@H](C)[C@@]21O	56.4	13.8	–	–	–
8.48	CC(C)=C[C@H]1O[C@@](C)(CC=O)C2=C1[C@@H](C)[C@@H]1CC[C@H](C)[C@]1(O)C2=O	65.4	< 10	–	–	–
–	CC(C)=CC(=O)[C@@]1(O)[C@@H](C)[C@@H]2CC[C@H](C)[C@H]2C(=O)[C@]1(O)[C@@H](C)CC[C@@H]1OC(=O)C=C1C	32.1	< 10	–	–	–
–	CCC(=O)CC[C@H](C)[C@@]1(O)C(=O)[C@H]2[C@@H](CC[C@@H]2C)[C@H](C)[C@]1(O)C(=O)C=C(C)C	32.6	< 10	–	–	–
–	CC(C)=CC(=O)[C@]12O[C@]3(CC[C@H](C)[C@@]1(O)C(=O)[C@H]1[C@@H](CC[C@@H]1C)[C@@H]2C)OC(=O)C=C3C	43.3	< 10	–	–	–
–	CC(C)=CC(=O)[C@]12O[C@@H]([C@]3(O)OC(=O)C=C3C)C[C@H](C)[C@@]1(O)C(=O)[C@H]1[C@@H](CC[C@@H]1C)[C@@H]2C	36.9	< 10	–	–	–

IC50 (T-cell [3]) [µM]	Molecule	inhibition at 20 µM (T-cell [1]) [%]	inhibition at 20 µM (T-cell [2]) [%]	IC50 (T-cell [4]) [µM]	inhibition (T-cell [1]) [%]	inhibition (T-cell [2]) [%]
–	CC(C)=C[C@H]1O[C@@]2(C)C[C@H]([C@]3(O)OC(=O)C=C3C)O[C@]13[C@H]2C(=O)[C@@]1(O)[C@@H](C)CC[C@H]1[C@@H]3C	43.6	26	–	–	–
–	CC(C)=C[C@H]1O[C@@](C)(CC[C@@H]2OC(=O)C=C2C)[C@@H]2C(=O)[C@@]3(O)[C@@H](C)CC[C@H]3[C@H](C)[C@@]21O	39.1	13.2	–	–	–
–	CC(C)=CC(=O)[C@@]1(O)[C@@H](C)[C@@H]2CC[C@H](C)[C@H]2C(=O)[C@]1(O)[C@@H](C)CCc1occc1C	41.6	< 10	–	–	–
9.15	CC(C)=C[C@H]1O[C@@](C)(CCc2occc2C)[C@@H]2C(=O)[C@]3(O)[C@@H](C)CC[C@H]3[C@H](C)[C@@]21O	56.8	< 10	–	–	–
–	CC(C)=C[C@H]1O[C@@](C)(CC(=O)O)C2=C1[C@@H](C)[C@@H]1CC[C@H](C)[C@H]1C2=O	39.9	25	–	–	–
–	CC(C)=C[C@H]1O[C@@](C)(CC[C@@H]2OC(=O)C=C2C)C2=C1[C@@H](C)[C@@H]1CC[C@H](C)[C@@H]1C2=O	31.3	< 10	–	–	–
–	CC(C)=C[C@H]1O[C@@]2(C)C[C@H]([C@H]3NC(=O)C=C3C)O[C@]13[C@H]2C(=O)[C@H]1[C@@H](CC[C@@H]1C)[C@@H]3C	43.1	13.1	–	–	–
–	CC(C)=CC(=O)[C@@]1(O)[C@@H](C)[C@@H]2CC[C@H](C)[C@H]2C(=O)[C@]1(O)[C@H](C)CC[C@]1(O)OC(=O)C=C1C	41.3	11.7	–	–	–
23.6	CC(C)=C[C@H]1O[C@@](C)(CC[C@@H]2OC(=O)C=C2C)[C@@H]2C(=O)[C@H]3[C@@H](CC[C@@H]3C)[C@H](C)[C@@]21O	57.6	26.7	–	–	–
–	CC(C)=C[C@H]1O[C@@]2(C)C[C@H](c3occc3C)O[C@]13[C@H]2C(=O)[C@H]1[C@@H](CC[C@@H]1C)[C@@H]3C	49.7	13.6	–	–	–
11.6	CC(C)=C[C@H]1O[C@@](C)(C[C@H]2C(=O)C(C)=C[C@@H]2O)[C@@H]2C(=O)[C@@]3(O)[C@@H](C)CC[C@H]3[C@H](C)[C@@]21O	57.3	11.8	–	–	–
–	CC(C)=C[C@H]1O[C@@](C)(C/C=C2/OC(=O)C=C2C)C2=C1[C@@H](C)[C@@H]1CC[C@H](C)[C@@]1(O)C2=O	32.5	< 10	–	–	–
–	CC(C)=C[C@H]1O[C@@](C)(C/C=C2\NC(=O)C=C2C)[C@@H]2C(=O)[C@H]3[C@@H](CC[C@@H]3C)[C@H](C)[C@@]21O	16.9	< 10	–	–	–
–	CC(C)=CC(=O)[C@@]1(O)[C@@H](C)[C@@H]2CC[C@H](C)[C@H]2C(=O)[C@@]12O[C@@H](c1occc1C)C[C@@H]2C	34.6	< 10	–	–	–
5.59	CC(C)=CC(=O)[C@@]1(O)[C@@H](C)[C@@H]2CC[C@H](C)[C@H]2C(=O)[C@]1(O)[C@H](C)CCc1occc1C	73.6	27.9	–	–	–
–	CC(C)=CC1O[C@@]2(C)CC[C@]3(OC(=O)C=C3C)O[C@]13[C@H]2C(=O)[C@@]1(O)[C@@H](C)CC[C@H]1[C@@H]3C (some centres not stated)	40.9	< 10	–	–	–
–	CC(C)=C[C@H]1O[C@@](C)(CC[C@@]2(O)OC(=O)C=C2C)C2=C1[C@@H](C)[C@@H]1CC[C@H](C)[C@@]1(O)C2=O	36.8	< 10	–	–	–
–	CC(C)=C[C@H]1O[C@@](C)(CCC(=O)O)C2=C1[C@@H](C)[C@@H]1CC[C@H](C)[C@]1(O)C2=O	37.9	20.2	–	–	–
–	CC(C)=C[C@H]1O[C@@](C)(C/C=C2\NC(=O)C=C2C)[C@@H]2C(=O)[C@@]3(O)[C@@H](C)CC[C@H]3[C@H](C)[C@@]21O	44	< 10	–	–	–
–	CC(C)=C[C@H]1O[C@@](C)(C/C=C2\OC(=O)C=C2C)[C@@H]2C(=O)[C@]3(O)[C@@H](C)CC[C@H]3[C@H](C)[C@@]21O	45.4	< 10	–	–	–
–	Norleucosceptroid K	–	–	–	33.6	12.1
16.7	CC(C)=CC(=O)[C@@]1(O)[C@@H](C)[C@@H]2CC[C@H](C)[C@H]2C(=O)[C@@]12O[C@@H](c1occc1C)C[C@H]2C	63.4	< 10	–	–	–
